Key:
Phytophthora infestans = assay type: in vivo; conditions: tomato late blight; 500 ppm; after 5 days; average per leaf
Sphaerotheca fuliginea = assay: Effect on powdery mildew in cucumbers; assay type: in vivo; conditions: cucumber powdery mildew; 500 ppm; 10 days
Experimental: (§1) In the following Examples, wettable powders prepared according to the procedures of Example 4 were used, each powder containing 50% by weight of the active compound of this invention.
Cucumber seedlings (variety Sagamihanshiro), planted two per 12 cm diameter pot, were used as host plants at the stage when the first leaf was fully grown and open. Each test group of three pots was treated with one of the active compounds shown in Table 5 by spraying an aqueous suspension containing 500 ppm of the active compound onto the plants at the rate of 20 ml per 3 pots. After air-drying the plants, the host plants were inoculated with the microorganism Sphaerotheca fuliginea by brushing already infected cucumber leaves with a small brush and letting the microorganism fall onto the host plants. The inoculated plants were kept in a greenhouse at 24°-26° C. for 10 days. At the end of this time, the percentage diseased area was measured.

[1] = tested on: third instar larvae of the tobacco cutworm; assay: Repellent action against the third instar larvae of the tobacco cutworm; assay type: in vivo; design: key: -: no ingestion; ±: very little ingestion; +: some ingestion; ++: considerable ingestion; conditions: cabbage leaves dipped in 500 ppm, 72 hours
Source text: as §1
Cabbage leaves were dipped for 30 seconds in an aqueous suspension containing 500 ppm of one of the active compounds shown in Table 6. After air-drying, each leaf was placed into a plastic receptacle having a diameter of 8 cm and the third instar larvae (10 per receptacle) of the tobacco cutworm were released onto the leaves. After 72 hours, the extent of ingestion of the leaves was measured, using two receptacles for each test compound. The results are shown in Table 6, using the following notation (which is also employed, with the same meaning, in following Table 9): […]

[2] = tested on: final instar larvae of the diamondback moth (Plutella xylostella); assay: Repellent and emergence-inhibition effect on the final instar larvae of diamondback moths; assay type: in vivo; design: key to Extent of ingestion: -: no ingestion; ±: very little ingestion; +: some ingestion; ++: considerable ingestion; conditions: 72 hours; for pest or weed control at 500 ppm: Plutella xylostella, read-out: Emergence-inhibition rate (%); for Extent of ingestion: radish leaves dipped in 500 ppm
Source text: as §1
Leaves of the Japanese radish (Raphanus sativus) were dipped for 30 seconds into a liquid containing 500 ppm of one of the compounds shown in Table 9. After air-drying the leaves, each leaf was placed into a plastic icecream cup (diameter 8 cm) and 15 final instar larvae of the diamondback moth (Plutella xylostella) were placed into each cup. Each test was conducted in duplicate and the results were averaged.

cockroach larvae = conditions: 24 hours; 25° C.
Alternalia solani = assay: Effect on early blight in tomatoes; assay type: in vivo; conditions: tomato early blight; 500 ppm; 3 days in greenhouse
Experimental: as §1
Groups of tomato plants (variety Shinfukuju) were planted, two per pot, in a series of Wagner pots (diameter 12 cm) and used for the following test when at the 5 to 6 leaf stage. Each pot was treated with 30 ml of an aqueous suspension containing 500 ppm of one of the active compounds shown in Table 3, applied to the plants by spraying over their stems and leaves. After air-drying the plants, a spore suspension of the pathogenic microorganism Alternalia solani was sprayed over each plant, and the plants were kept in a wet room for 24 hours at 20°-22° C. and 100% relative humidity. The pots were then placed in a greenhouse for 3 days. All leaves were then examined for signs of the disease and the number of disease spots per leaf was calculated, using three pots for each compound.

[3] = tested on: Colletotrichum lagenarium; assay: Effect on anthracnose in cucumbers; assay type: in vivo; conditions: cucumber anthracnose; 500 ppm; seven days; cotyledon and first leaf
Experimental: as §1
Groups of cucumber plants (variety Sagamihanshiro) were planted, two per pot, in a series of Wagner pots (diameter 12 cm) and were used as host plants when the first leaf was fully grown and open. Each test group of three pots was treated with one of the active compounds shown in Table 4 by spraying an aqueous suspension containing 500 ppm of the active compound onto the plants at the rate of 30 ml per 3 pots. After air-drying the plants, a spore suspension of the pathogenic microorganism Colletotrichum lagenarium was sprayed onto the plants and the plants were kept in a wet room for 24 hours at 20°-22° C. and 100% relative humidity. The pots were then placed in a greenhouse at 26° C. and, seven days after the spore suspension had been sprayed on, the percentage diseased area of the cotyledon and the first leaf was calculated.

guppies = assay: Toxicity to guppies; assay type: in vivo; conditions: LC50 after 48 hours classified
Experimental: In this example the toxicity of the compounds of the invention towards guppies was estimated and is compared with that of corresponding compounds as disclosed and claimed in our co-pending U.S. Application No. 910,117 filed May 30, 1978. The LC50 was determined after 48 hours and the toxicity to guppies was classified into the rankings (i), (ii) and (iii) according to the following classification scheme: […]

Piricularia oryzae = assay type: in vivo; conditions: rice blast; 500 ppm spray; mean, upper two leaves

| SMILES | Diseased area (%) (Phytophthora infestans) | Diseased area (%) (Sphaerotheca fuliginea) | Extent of ingestion [1] | pest or weed control at 500 ppm [2] | Extent of ingestion [2] | Mortality rate (%), 0.5mg test cpd/10 cockroaches/bottle (cockroach larvae) | Mortality rate (%), 1mg test cpd/10 cockroaches/bottle (cockroach larvae) | No. of disease spots per leaf (Alternalia solani) | Diseased area (%) [3] | Toxicity ranking (guppies) | No. of disease spots per leaf (Piricularia oryzae) |
| --- | --- | --- | --- | --- | --- | --- | --- | --- | --- | --- | --- |
| C=CCN(CCOc1ccc(Cl)cc1C)c1ncnc2ccccc12 [compound 43, 4-{N-allyl-N-[2-(4-chloro-2-methylphenoxy)ethyl]amino}quinazoline] | 11% | 0% | + | 70% | ± | 90% | 100% | – | – | – | – |
| CC=CCN(CCOc1ccccc1C(C)C)c1ncnc2ccccc12 [compound 51, 4-{N-(2-butenyl)-N-[2-(2-isopropylphenoxy)ethyl]amino}quinazoline] | 0% | 0% | – | – | – | – | – | 4 spots per leaf | 0% | – | – |
| C=CCN(CCOc1ccc(C)cc1C)c1ncnc2ccccc12 [compound 26, 4-{N-allyl-N-[2-(2,4-dimethylphenoxy)ethyl]amino}quinazoline] | 3% | 0% | ± to + | 80% | ± to + | 90% | 100% | – | 0% | – | – |
| CCN(CCOc1ccccc1C)c1ncnc2ccccc12 [Compound No. 2, 4-{N-ethyl-N-[2-(2-methylphenoxy)ethyl]amino}quinazoline] | 3% | 0% | – | – | – | 90% | 100% | 16 spots per leaf | 0% | ii (all fish dead at 10 ppm but alive at 0.5 ppm) | – |
| Cc1ccc(COCCN(C)c2ncnc3ccccc23)cc1 [compound 13, 4-{N-methyl-N-[2-(4-methylbenzyloxy)ethyl]amino}quinazoline] | – | – | – | – | – | 80% | 100% | – | – | – | 2.9 spots per leaf |
| Cc1ccc(OCCN(C)c2ncnc3ccccc23)cc1 [compound 18, 4-{N-methyl-N-[2-(4-methylphenoxy)ethyl]amino}quinazoline] | 16% | 8% | – | – | – | 90% | 100% | – | – | – | 2.6 spots per leaf |
| Cc1ccc(OCCN(c2ncnc3ccccc23)C(C)C)c(C)c1 [compound 34, 4-{N-[2-(2,4-dimethylphenoxy)ethyl]-N-isopropylamino}quinazoline] | 0% | 10% | – | – | – | – | – | 15 spots per leaf | – | – | – |
| CCN(CCOc1ccc(Cl)cc1C)c1ncnc2ccccc12 [compound 38, 4-{N-[2-(4-chloro-2-methylphenoxy)ethyl]-N-ethylamino}quinazoline] | 13% | 0% | ± | 100% | - to ± | 90% | 100% | – | – | – | – |
| CCCCCCN(CCOc1ccccc1C(C)C)c1ncnc2ccccc12 [compound 44, 4-{N-hexyl-N-[2-(2-isopropylphenoxy)ethyl]amino}quinazoline] | – | – | – | – | – | – | – | – | – | – | 3.1 spots per leaf |
| CN(CCOCc1ccc(Cl)cc1)c1ncnc2ccccc12 [compound 14, 4-{N-[2-(4-chlorobenzyloxy)ethyl]-N-methylamino}quinazoline] | – | – | – | – | – | – | – | – | – | – | 1.5 spots per leaf |
| CCCCCCCCc1ccc(C)c(OCCN(C)c2ncnc3ccccc23)c1 [compound 56, 4-{N-methyl-N-[2-(2-methyl-5-octylphenoxy)ethyl]amino}quinazoline] | – | – | – | – | – | – | – | – | – | – | 3.2 spots per leaf |
| C=C(C)CN(CCOc1ccccc1C(C)C)c1ncnc2ccccc12 [compound 52, 4-{N-[2-(2-isopropylphenoxy)ethyl]-N-(2-methylallyl)amino}quinazoline] | 13% | 0% | – | – | – | – | – | – | 8% | i (all fish alive at 10 ppm) | – |
| Cc1ccccc1OCCN(c1ncnc2ccccc12)C1CCCCC1 [compound 9, 4-{N-cyclohexyl-N-[2-(2-methylphenoxy)ethyl]amino}quinazoline] | 13% | – | – | – | – | – | – | 15 spots per leaf | – | – | – |
| CCN(CCOc1cc(C(C)C)ccc1C)c1ncnc2ccccc12 [compound 47, 4-{N-ethyl-N-[2-(5-isopropyl-2-methylphenoxy)ethyl]amino}quinazoline] | – | 0% | ± to + | 90% | ± | 85% | 100% | – | – | – | – |
| CCN(CCOc1ccc(C)cc1C)c1ncnc2ccccc12 [compound 32, 4-{N-[2-(2,4-dimethylphenoxy)ethyl]-N-ethylamino}quinazoline] | 5% | 0% | – | – | – | 85% | 100% | – | 8% | – | – |
| CCCCCCc1ccc(OCCN(C)c2ncnc3ccccc23)c(C)c1 [compound 57, 4-{N-[2-(4-hexyl-2-methylphenoxy)ethyl]-N-methylamino}quinazoline] | – | – | ± | 100% | - to ± | 90% | 100% | – | – | – | – |
| C=CCN(CCOc1ccccc1C(C)C)c1ncnc2ccccc12 [compound 25, 4-{N-allyl-N-[2-(2-isopropylphenoxy)ethyl]amino}quinazoline] | 0% | 0% | – | – | – | 85% | 100% | 15 spots per leaf | 8% | – | – |
| CCCCN(CCOc1ccccc1C)c1ncnc2ccccc12 [compound 10, 4-{N-butyl-N-[2-(2-methylphenoxy)ethyl]amino}quinazoline] | – | 0% | – | – | – | – | – | 4 spots per leaf | – | – | – |
| Cc1ccccc1OCCN(C)c1ncnc2ccccc12 [Compound No. 1, 4-{N-methyl-N-[2-(2-methylphenoxy)ethyl]amino}-quinazoline] | 0% | 0% | – | – | – | – | – | 8 spots per leaf | 0% | ii (all fish dead at 10 ppm but alive at 0.5 ppm) | – |
| CN(CCOc1ccc(Cl)cc1)c1ncnc2ccccc12 [compound 19, 4-{N-[2-(4-chlorophenoxy)ethyl]-N-methylamino}quinazoline] | – | – | + | 80% | ± | 85% | 100% | – | – | – | – |
| CC(C)c1ccccc1OCCN(c1ncnc2ccccc12)C1CCCCC1 [compound 31, 4-{N-cyclohexyl-N-[2-(2-isopropylphenoxy)ethyl]amino}quinazoline] | – | – | – | – | – | – | – | 13 spots per leaf | – | – | – |

Reference: patent US4304778A, “4-Aminoquinazoline derivatives having fungicidal, anti-insect and acaricidal properties” (Sankyo Company Limited, priority 1978, dated 1981)
